According to PMC6882468 (Journal of Enzyme Inhibition and Medicinal Chemistry, 2019):

Assays:
[1] = test system: DNFB-induced mouse model of allergic contact dermatitis; test: DNFB-induced mouse model of allergic contact dermatitis (ear swelling); format: in vivo, Male ICR mice; conditions: for Swelling degree / Inhibition (%) of ear swelling: mice, 5 mg/kg intragastric once a day for 6 days; for Swelling degree: ear slices weighed 24 h after DNFB challenge, Mean ± SD, n = 6; for Inhibition (%) of ear swelling: vs model group; for in vivo inhibitory activity, in words: p.o. 5 mg/kg, p < 0.01
Method: Male ICR mice (20 ± 2 g) were obtained from the Experimental Animal Centre of Anhui Medical University (Hefei, China). The mice reared in a pathogen-free setting (23 ± 2 °C, 55 ± 5% humidity) with free access to water and pelleted food throughout the experimental cycle. All experimental procedures performed in accordance with guide for the Care and Use of Laboratory Animals (National Research Council, 1996) and were approved by the Experimental Animal Ethics Committee of Anhui University of Chinese Medicine (Hefei, China). After 7 days acclimatisation, the mice were randomly divided into control group, ACD model group, dexamethasone positive control group and 20 compound groups, six in each group. The control group and the model group were given the same dose of the vehicle, the positive control group was given dexamethasone 0.5 mg/kg, and the test compound groups were given compound 5 mg/kg, all of which were given by intragastric administration and were administered once a day for 6 days. Except for the control group, the 50 µL of 1% DNFB (in acetone/olive oil 4:1) was administered to the stripped epidermis, and repeated the next day. After 6 days of drug treatment, 10 µL of 1% DNFB acetone olive oil solution was applied on both sides of the right ear to stimulate inflammation, and equivalent acetone olive oil solution was applied on the left ear for comparison. […] Calculation was carried out according to the following equations. Swelling degree (mg) = MR – ML Inhibitory rate of ear swelling (%)=((MR – ML) model – (MR – ML) treated)/(MR – ML) model ×100% MR=Average weight of the right ear slices;ML= Average weight of the left ear slices […] Dexamethasone (DEX) at a p.o. dose of 0.5 mg/kg was employed as the positive control. After the mice were sacrificed, the swelling degree and inhibition rate were calculated by weighing the same part of both ears.

[2] = biological target: p38α MAPK (Homo sapiens, UniProt Q16539); test: p38α MAPK inhibition assay in vitro; format: biochemical; conditions: triplicate, read-out: IC50 p38p
p38α MAPK, sequence (Q16539 whole entry): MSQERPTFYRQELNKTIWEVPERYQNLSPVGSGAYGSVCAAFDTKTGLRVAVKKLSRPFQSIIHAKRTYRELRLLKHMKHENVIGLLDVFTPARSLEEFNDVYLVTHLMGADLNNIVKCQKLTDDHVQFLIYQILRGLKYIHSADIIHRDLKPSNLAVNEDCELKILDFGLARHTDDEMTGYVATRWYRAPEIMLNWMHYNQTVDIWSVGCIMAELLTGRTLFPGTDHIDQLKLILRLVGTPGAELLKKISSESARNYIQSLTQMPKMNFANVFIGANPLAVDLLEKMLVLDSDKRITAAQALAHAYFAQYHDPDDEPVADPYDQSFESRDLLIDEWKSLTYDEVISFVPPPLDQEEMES
Method: In brief, after mixing the enzyme reagent with the sample, a reaction mixture containing 200 µM biotin-peptide substrate and 600 µM ATP (+100 µCi/mL γ-^32 P-ATP) was added to initiate the reaction. […] Part of the reaction solution was transferred to the well of a streptavidin-coated flash plate, washed in PBS containing 0.01% Tween and sealed. The average value of counts per minute for each group and the IC50 value was calculated.
The average fluorescence values of each well were calculated and recorded as RFU (Relative Fluorescence Unit) blank control (RFU blank), RFU 100% enzyme activity control (RFU enzyme), RFU positive drug control (RFU drug) and RFU test compound (RFU compound). The inhibition rate is calculated according to the following formula. Inhibition rate (%)= (RFU (enzyme) – RFU (compound/drug) […]) /(RFU (enzyme) – RFU (blank)) * 100%
The IC50 value of the test compound was calculated by the concentration-inhibition reaction curve and the assays were performed in triplicate.

[3] = biological target: T1, COX-1 (Ovis aries, UniProt P05979); test: COX-1 inhibition assay in vitro (COX Inhibitor Screening Kit, fluorometric); format: biochemical
T1 construct: purchased BioVision, Inc
T1 sequence (P05979 25-600): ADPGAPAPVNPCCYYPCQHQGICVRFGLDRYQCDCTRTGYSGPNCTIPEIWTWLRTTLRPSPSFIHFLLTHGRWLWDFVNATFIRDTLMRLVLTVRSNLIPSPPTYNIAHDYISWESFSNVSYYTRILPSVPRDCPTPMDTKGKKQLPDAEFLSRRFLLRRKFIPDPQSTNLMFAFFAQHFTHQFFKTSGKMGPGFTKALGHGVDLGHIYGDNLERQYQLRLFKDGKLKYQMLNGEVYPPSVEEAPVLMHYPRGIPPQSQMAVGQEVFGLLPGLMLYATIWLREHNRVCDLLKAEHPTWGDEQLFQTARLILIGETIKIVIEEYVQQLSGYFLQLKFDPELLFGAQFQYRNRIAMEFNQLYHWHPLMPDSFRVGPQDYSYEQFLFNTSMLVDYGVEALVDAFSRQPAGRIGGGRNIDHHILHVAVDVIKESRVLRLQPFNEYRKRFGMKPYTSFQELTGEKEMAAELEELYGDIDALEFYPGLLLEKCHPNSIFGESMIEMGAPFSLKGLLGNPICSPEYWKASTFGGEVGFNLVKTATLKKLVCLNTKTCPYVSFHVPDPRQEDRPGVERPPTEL
Method: Simply, different concentrations of the test compound solution were added to the mixed solution containing COX-1/COX-2 enzyme (10 µL) and Assay Buffer (960 µL, 0.1 M Tris-HCl pH 8.0 containing 5 µM EDTA and 2 µM phenol). […] The IC50 values were calculated as described above.

[4] = biological target: T2, COX-2 (Homo sapiens, UniProt P35354); test: COX-2 inhibition assay in vitro (COX Inhibitor Screening Kit, fluorometric); conditions: for SI (COX-1/COX-2): IC50 (COX-1)/IC50 (COX-2)
T2 sequence (P35354 18-604): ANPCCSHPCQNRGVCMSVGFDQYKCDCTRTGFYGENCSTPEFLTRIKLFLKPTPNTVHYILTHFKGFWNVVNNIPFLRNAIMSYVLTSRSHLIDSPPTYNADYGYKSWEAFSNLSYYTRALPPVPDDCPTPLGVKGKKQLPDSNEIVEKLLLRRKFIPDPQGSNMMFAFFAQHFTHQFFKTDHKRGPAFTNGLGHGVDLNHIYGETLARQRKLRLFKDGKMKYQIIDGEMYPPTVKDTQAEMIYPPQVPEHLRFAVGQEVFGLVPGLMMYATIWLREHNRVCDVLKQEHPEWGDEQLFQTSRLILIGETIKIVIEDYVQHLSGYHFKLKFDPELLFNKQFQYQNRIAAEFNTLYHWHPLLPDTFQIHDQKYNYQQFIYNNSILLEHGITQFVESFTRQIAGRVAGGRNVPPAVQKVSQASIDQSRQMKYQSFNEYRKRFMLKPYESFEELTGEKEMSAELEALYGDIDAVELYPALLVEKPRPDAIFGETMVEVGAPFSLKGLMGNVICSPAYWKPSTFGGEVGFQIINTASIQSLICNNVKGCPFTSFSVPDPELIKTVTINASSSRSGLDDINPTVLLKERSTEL

[5] = test system: p38α; set-up: method as in PMID 17664068; conditions: Figure 1; cited from earlier work

| IC50 [2] [nM] | IC50 [3] [nM] | IC50 [4] [nM] | SI (COX-1/COX-2) [4] | Structure (SMILES) | Swelling degree [1] [mg] | Inhibition (%) of ear swelling [1] [%] | in vivo inhibitory activity, in words [1] | IC50 [5] [nM] |
| --- | --- | --- | --- | --- | --- | --- | --- | --- |
| 3410 ± 220 | 1190 ± 80 | 842 ± 62 | 1.41 | CC(=O)c1ccccc1C(=O)N1CCN(Cc2cccc([N+](=O)[O-])c2)CC1 [Compound 6f, 1–(2-(4–(3-Nitrobenzyl)piperazine-1-carbonyl)phenyl)ethan-1-one] | 9.9 ± 2.9 | 39.6 | significant inhibitory activity | – |
| 8490 ± 570 | 4230 ± 230 | 22 ± 3 | 192.27 | CC(=O)c1ccccc1C(=O)N1CCN(Cc2ccc(F)cc2)CC1 [Compound 6j, 1–(2-(4–(4-Fluorobenzyl)piperazine-1-carbonyl)phenyl)ethan-1-one] | 10.4 ± 3.1 | 36.6 | significant inhibitory activity | – |
| – | – | – | – | COc1cc2[nH]ccc2cc1C(=O)N1CCN(Cc2ccccc2)CC1 [Compound 2] | – | – | – | 950 |
